In EP0596406B1, “Imidazo (1,2-a) Pyridines as bradykinin antagonists” (FUJISAWA PHARMACEUTICAL CO., LTD., priority 1992, dated 1994):
Structures can show the parent of a compound that is named as a salt.

Each molecule was assayed against T1, Bradykinin receptor (Cavia porcellus, UniProt O70526) (assay: ^3H-Bradykinin receptor binding (crude guinea pig ileum membrane)). Conditions: drug 1 x 10^-5M; ^3H-Bradykinin 0.06 nM; crude ileum membrane suspension; room temperature for 60 minutes; 10 µM.
T1 construct: The ileum was removed and homogenized in buffer; from tissue; host or cells: guinea pig ileum, crude membrane suspension
T1 sequence (O70526 1-372): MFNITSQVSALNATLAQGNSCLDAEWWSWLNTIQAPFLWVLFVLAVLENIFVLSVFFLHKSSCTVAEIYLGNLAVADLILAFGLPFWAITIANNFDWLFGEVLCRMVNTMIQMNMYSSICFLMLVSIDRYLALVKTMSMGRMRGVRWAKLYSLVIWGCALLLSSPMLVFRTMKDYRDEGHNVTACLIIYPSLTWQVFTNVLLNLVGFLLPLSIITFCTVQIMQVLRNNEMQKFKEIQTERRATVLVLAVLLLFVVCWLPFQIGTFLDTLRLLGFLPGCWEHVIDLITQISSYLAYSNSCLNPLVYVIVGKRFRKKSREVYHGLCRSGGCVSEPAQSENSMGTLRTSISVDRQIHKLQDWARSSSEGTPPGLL
Parameters: species or system guinea pigs
Procedure: (a) Crude ileum membrane preparation
Male Hartly strain guinea pigs were sacrificed by decapitation. The ileum was removed and homogenized in buffer (50 mM trimethylaminoethanesulfonic acid (TES), 1 mM 1,10-phenanthroline pH 6.8). The homogenate was centrifuged (1000 xg, 20 minutes) to remove tissue clumps and the supernatant was centrifuges (100,000 xg, 60 minutes) to yield a pellet. The pellet was resuspended in buffer (50 mM TES, 1 mM 1,10-phenanthroline, 140 mg/ℓ bacitracin, 1 mM dithiothreiol, 0.1 % bovine serum albumin pH 6.8) and homogenized with a glass-teflon homogenizer to yield suspension which was referred to as crude membrane suspension. The obtained membrane suspension was stored at -80°C until use.
(b) ^3H-Bradykinin binding to the membrane
The frozen crude membrane suspension was thawed. In binding assays, ^3H-Bradykinin (0.06 nM) and drug (1 x 10^-5M) were incubated with 50 µl of the membrane suspension at room temperature for 60 minutes in a final volume of 250 µl. Separation of receptor-bound from free ^3H-Bradykinin is achieved by immediate filtration under vacuum and washed three times with 5 ml of ice-cold buffer (50 mM Tris-HCl pH 7.5). Non-specific binding was defined as binding in the presence of 0.1 µM Bradykinin. The radioactivity retained on rinsed filters was determined by a liquid-scintillation counter.

Structure (SMILES) | Inhibition % of ^3H-Bradykinin binding (concentration : 1 x 10^-5M) [%]
Cc1nc2c(OCc3c(Cl)ccc(N(C)C(=O)CNC(=O)Nc4cccnc4)c3Cl)cccn2c1Br.Cl.Cl [61-(54), 3-Bromo-8-[2,6-dichloro-3-[N-[N'-(3-pyridyl)ureidoacetyl]-N-methylamino]benzyloxy]-2-methylimidazo[1,2-a]pyridine dihydrochloride] | 100
CCCNC(=O)NCC(=O)N(C)c1ccc(Cl)c(COc2cccn3c(Br)c(C)nc23)c1Cl.Cl [61-(51), 3-Bromo-8-[2,6-dichloro-3-[N-(N'-n-propylureidoacetyl)-N-methylamino]benzyloxy]-2-methylimidazo[1,2-a]pyridine hydrochloride] | 100

Same assay, conditions: drug 1 x 10^-5M; ^3H-Bradykinin 0.06 nM; crude ileum membrane suspension; room temperature for 60 minutes; read-out: Inhibition % of ^3H-Bradykinin binding (concentration : 1 x 10^-5M)

Structure (SMILES) | inhibition at 10 µM [%]
CC(=O)NCC(=O)NCC(=O)N(C)c1ccc(Cl)c(COc2cccn3c(Br)c(C)nc23)c1Cl [61-(18), 8-[3-[N-(Acetylglycylglycyl)-N-methylamino]-2,6-dichlorobenzyloxy]-3-bromo-2-methylimidazo[1,2-a]pyridine hydrochloride] | 97
Cc1nc2c(OCc3c(Cl)ccc([N+](=O)[O-])c3Cl)cccn2c1Br [Example 60, 3-bromo-8-(2,6-dichloro-3-nitrobenzyloxy)-2-methylimidazo[1,2-a]pyridine hydrochloride] | 100
CCNC(=O)NCC(=O)N(C)c1ccc(Cl)c(COc2cccn3c(Br)c(C)nc23)c1Cl [61-(28), 3-Bromo-8-[2,6-dichloro-3-[N-(N'-ethylureidoacetyl)-N-methylamino]benzyloxy]-2-methylimidazo[1,2-a]pyridine hydrochloride] | 99
Cc1nc2c(OCc3c(Cl)ccc(N(C)C(=O)CNC(=S)Nc4ccccc4)c3Cl)cccn2c1Cl [Example 47, 3-Chloro-8-[2,6-dichloro-3-[N-(N'-phenylthioureidoacetyl)-N-methylamino]benzyloxy]-2-methylimidazo[1,2-a]pyridine] | 100
Cc1nc2c(OCc3c(Cl)ccc(N(C)C(=O)CNC(=O)c4ccccc4)c3Cl)cccn2c1Br [61-(11), 8-[3-[N-(Benzoylglycyl)-N-methylamino]-2,6-dichlorobenzyloxy]-3-bromo-2-methylimidazo[1,2-a]pyridine hydrochloride] | 98
CCCC(=O)NCC(=O)N(C)c1ccc(Cl)c(COc2cccn3c(Br)c(C)nc23)c1Cl [61-(7), 3-Bromo-8-[3-[N-(butyrylglycyl)-N-methylamino]-2,6-dichlorobenzyloxy]-2-methylimidazo[1,2-a]pyridine hydrochloride] | 100
COCC(=O)NCC(=O)CC(=O)N(C)c1ccc(Cl)c(COc2cccn3c(Br)c(C)nc23)c1Cl [61-(16), 3-Bromo-8-[2,6-dichloro-3-[N-(methoxyacetylglycyl)acetyl-N-methylamino]benzyloxy]-2-methylimidazo[1,2-a]pyridine hydrochloride] | 100
Cc1nc2c(OCc3c(Cl)ccc(N(C)C(=O)CNC(=O)Cc4ccccc4)c3Cl)cccn2c1Br [61-(13), 3-Bromo-8-[2,6-dichloro-3-[N-(phenylacetylglycyl)-N-methylamino]benzyloxy]-2-methylimidazo[1,2-a]pyridine hydrochloride] | 98
CC(=O)NCC(=O)N(C)c1ccc(Cl)c(COc2cccn3c(Br)c(C)nc23)c1Cl [61-(5), 8-[3-[N-(Acetylglycyl)-N-methylamino]-2,6-dichlorobenzyloxy]-3-bromo-2-methylimidazo[1,2-a]pyridine hydrochloride] | 99
CC(=O)N(C)c1ccc(Cl)c(COc2cccn3c(Br)c(C)nc23)c1Cl [61-(1), 3-Bromo-8-[2,6-dichloro-3-(N-acetyl-N-methylamino)benzyloxy]-2-methylimidazo[1,2-a]pyridine hydrochloride] | 95
Cc1nc2c(OCc3c(Cl)ccc(N(C)C(=O)CNC(=O)CN(C)C)c3Cl)cccn2c1Br [61-(41), 3-Bromo-8-[2,6-dichloro-3-[N-[(N,N-dimethylglycyl)glycyl]-N-methylamino]benzyloxy]-2-methylimidazo[1,2-a]pyridine dihydrochloride] | 100
Cc1nc2c(OCc3c(Cl)ccc(N(C)C(=O)CNC(C)C)c3Cl)cccn2c1Br [61-(23), 3-Bromo-8-[2,6-dichloro-3-[N-(isopropylglycyl)-N-methylamino]benzyloxy]-2-methylimidazo[1,2-a]pyridine dihydrochloride] | 100
Cc1nc2c(OCc3c(Cl)ccc(N(C)C(=O)CNC(=O)[C@H]4CCCN4)c3Cl)cccn2c1Br [Example 49, 3-Bromo-8-[2,6-dichloro-3-[N-(D-prolylglycyl)-N-methylamino]benzyloxy]-2-methylimidazo[1,2-a]pyridine dihydrochloride] | 100

Same assay, conditions: read-out: Inhibition % of ^3H-Bradykinin binding (concentration : 1 x 10^-5M)

Structure (SMILES) | inhibition at 10 µM [%]
Cc1nc2c(OCc3c(Cl)ccc(N(C)C(=O)CNC(=O)Oc4ccc([N+](=O)[O-])cc4)c3Cl)cccn2c1Br [40-(21), 3-Bromo-8-[2,6-dichloro-3-[N-(4-nitrophenoxycarbonylglycyl)-N-methylamino]benzyloxy]-2-methylimidazo[1,2-a]pyridine] | 97
